Measurements reported in patent US10815222B2, “Compounds for use in the treatment of kinetoplastid infection” (C.N.C.C.S. S.c.a.r.l. COLLEZIONE NAZIONALE DEI COMPOSTI …, priority 2016, dated 2020).

These compounds were tested on Bloodstream form of Trypanosoma brucei, strain Lister 427 (assay: Trypanosoma brucei growth inhibition assay (CellTiter-Glo, 24 h)). Details: Trypanosoma brucei; T. Brucei Growth Inibition Assay, class symbols; read-out: T. Brucei GI EC50.
Assay type: cell-based
In short: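 Growth read-out was CellTiter-Glo luminescence after 24 h at 37 °C incubation of 1500 bloodstream-form Lister 427 trypanosomes per well with compound, in supplemented IMDM containing 10% FBS and at most 0.25% DMSO.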
In the case of `COc1ccc2nc(C(F)(F)F)n(CC(=O)N3CC[C@H](NC4CCOC4)C[C@H]3c3ncc(-c4cc5ccccc5nc4OC)[nH]3)c2c1` (stereo partly drawn) [2-(6-methoxy-2-(trifluoromethyl)-1H-benzo[d]imidazol-1-yl)-1-((2S,4S)-2-(5-(2-methoxyquinolin-3-yl)-1H-imidazol-2-yl)-4-((tetrahydrofuran-3-yl)amino)piperidin-1-yl)ethan-1-one], the EC50 is reported as under 0.1 µM. `COc1ccc2nc(C(F)(F)F)n(CC(=O)N3CC[C@H](NCc4nccs4)C[C@H]3c3ncc(-c4cc5ccccc5nc4OC)[nH]3)c2c1` [2-(6-methoxy-2-(trifluoromethyl)-1H-benzo[d]imidazol-1-yl)-1-((2S,4S)-2-(5-(2-methoxyquinolin-3-yl)-1H-imidazol-2-yl)-4-((thiazol-2-ylmethyl)amino)piperidin-1-yl)ethan-1-one] showed an EC50 of under 0.1 µM. In the case of `COc1ccc2nc(C(F)(F)F)n(CC(=O)N3CC[C@H](N(C)C4CCOC4)C[C@H]3c3ncc(-c4cc5ccccc5nc4OC)[nH]3)c2c1` (stereo partly drawn) [2-(6-methoxy-2-(trifluoromethyl)-1H-benzo[d]imidazol-1-yl)-1-((2S,4S)-2-(5-(2-methoxyquinolin-3-yl)-1H-imidazol-2-yl)-4-(methyl(tetrahydrofuran-3-yl)amino)piperidin-1-yl)ethan-1-one], the EC50 is reported as under 0.1 µM. With `COc1ccc2nc(C(F)(F)F)n(CC(=O)N3CC[C@H](N(C)Cc4nccs4)C[C@H]3c3ncc(-c4cc5ccccc5nc4OC)[nH]3)c2c1` [2-(6-methoxy-2-(trifluoromethyl)-1H-benzo[d]imidazol-1-yl)-1-((2S,4S)-2-(5-(2-methoxyquinolin-3-yl)-1H-imidazol-2-yl)-4-(methyl(thiazol-2-ylmethyl)amino)piperidin-1-yl)ethan-1-one] the EC50 was under 0.1 µM. `COc1ccc2nc(C(F)(F)F)n(CC(=O)N3CC[C@H](NC4COC4)C[C@H]3c3ncc(-c4cc5ccccc5nc4OC)[nH]3)c2c1` [2-(6-methoxy-2-(trifluoromethyl)-1H-benzo[d]imidazol-1-yl)-1-((2S,4S)-2-(5-(2-methoxyquinolin-3-yl)-1H-imidazol-2-yl)-4-(oxetan-3-ylamino)piperidin-1-yl)ethan-1-one] showed an EC50 of under 0.1 µM. `COc1ccc2nc(C(F)(F)F)n(CC(=O)N3CC[C@H](N4CCCC4)C[C@H]3c3ncc(-c4cc5ccccc5nc4OC)[nH]3)c2c1` [2-(6-methoxy-2-(trifluoromethyl)-1H-benzo[d]imidazol-1-yl)-1-((2S,4S)-2-(5-(2-methoxyquinolin-3-yl)-1H-imidazol-2-yl)-4-(pyrrolidin-1-yl)piperidin-1-yl)ethan-1-one] gave an EC50 of under 0.1 µM. In the case of `COc1ccc2nc(C(F)(F)F)n(CC(=O)N3CC[C@H](N4CCOCC4)C[C@H]3c3ncc(-c4cc5ccccc5nc4OC)[nH]3)c2c1` [2-(6-methoxy-2-(trifluoromethyl)-1H-benzo[d]imidazol-1-yl)-1-((2S,4S)-2-(5-(2-methoxyquinolin-3-yl)-1H-imidazol-2-yl)-4-morpholinopiperidin-1-yl)ethan-1-one], the EC50 is reported as under 0.1 µM. In the case of `COc1ccc2nc(C(F)(F)F)n(CC(=O)N3CC[C@H](NC4CC(OC)C4)C[C@H]3c3ncc(-c4cc5ccccc5nc4OC)[nH]3)c2c1` (stereo partly drawn) [2-(6-methoxy-2-(trifluoromethyl)-1H-benzo[d]imidazol-1-yl)-1-((2S,4S)-4-((3-methoxycyclobutyl)amino)-2-(5-(2-methoxyquinolin-3-yl)-1H-imidazol-2-yl)piperidin-1-yl)ethan-1-one], the EC50 is reported as under 0.1 µM. `COc1ccc2nc(C(F)(F)F)n(CC(=O)N3C[C@H](NC4CCOC4)CC[C@H]3c3ncc(-c4cc5ccccc5nc4OC)[nH]3)c2c1` (stereo partly drawn) [2-(6-methoxy-2-(trifluoromethyl)-1H-benzo[d]imidazol-1-yl)-1-((2S,5R)-2-(5-(2-methoxyquinolin-3-yl)-1H-imidazol-2-yl)-5-((tetrahydrofuran-3-yl)amino)piperidin-1-yl)ethan-1-one] was tested, and the EC50 was under 0.1 µM. `COc1ccc2nc(C)n(CC(=O)N3CCN(Cc4ccn(C)n4)CCC3c3ncc(-c4cc5ccccc5nc4OC)[nH]3)c2c1` (stereo not drawn) [2-(6-methoxy-2-methyl-1H-benzo[d]imidazol-1-yl)-1-(7-(5-(2-methoxyquinolin-3-yl)-1H-imidazol-2-yl)-4-((1-methyl-1H-pyrazol-3-yl)methyl)-1,4-diazepan-1-yl)ethan-1-one] showed an EC50 of under 0.1 µM. `COc1ccc2nc(C)n(CC(=O)N3CCN(Cc4nccs4)CCC3c3ncc(-c4cc5ccccc5nc4OC)[nH]3)c2c1` (stereo not drawn) [2-(6-methoxy-2-methyl-1H-benzo[d]imidazol-1-yl)-1-(7-(5-(2-methoxyquinolin-3-yl)-1H-imidazol-2-yl)-4-(thiazol-2-ylmethyl)-1,4-diazepan-1-yl)ethan-1-one] showed an EC50 of under 0.1 µM. For `COc1ccc2nc(C)n(CC(=O)N3CCN(CC4CCOC4)C[C@H]3c3ncc(-c4cc5ccccc5nc4OC)[nH]3)c2c1` (stereo partly drawn) [2-(6-methoxy-2-methyl-1H-benzo[d]imidazol-1-yl)-1-((2S)-2-(5-(2-methoxyquinolin-3-yl)-1H-imidazol-2-yl)-4-((tetrahydrofuran-3-yl)methyl)piperazin-1-yl)ethan-1-one], the EC50 was under 0.1 µM. `COc1ccc2nc(C)n(CC(=O)N3CCN(CC4CCOC4)C[C@H]3c3ncc(/C=C/c4ccccc4)[nH]3)c2c1` (stereo partly drawn) [2-(6-methoxy-2-methyl-1H-benzo[d]imidazol-1-yl)-1-((2S)-2-(5-((E)-styryl)-1H-imidazol-2-yl)-4-((tetrahydrofuran-3-yl)methyl)piperazin-1-yl)ethan-1-one] gave an EC50 of 1.01 to 5 µM. `COc1ccc2nc(C)n(CC(=O)N3CCN(CC4CCOC4)C[C@H]3c3ncc(C#Cc4ccccn4)[nH]3)c2c1` (stereo partly drawn) [2-(6-methoxy-2-methyl-1H-benzo[d]imidazol-1-yl)-1-((2S)-2-(5-(pyridin-2-ylethynyl)-1H-imidazol-2-yl)-4-((tetrahydrofuran-3-yl)methyl)piperazin-1-yl)ethan-1-one] gave an EC50 of 1.01 to 5 µM. For `COc1ccc2nc(C)n(CC(=O)N3CC[C@H](N4CCOCC4)C[C@H]3c3ncc(-c4cc5ccccc5nc4OC)[nH]3)c2c1` [2-(6-methoxy-2-methyl-1H-benzo[d]imidazol-1-yl)-1-((2S,4S)-2-(5-(2-methoxyquinolin-3-yl)-1H-imidazol-2-yl)-4-morpholinopiperidin-1-yl)ethan-1-one], the EC50 was 0.1 to 0.5 µM. Work on `COc1ccc2cc(C)n(CC(=O)N3CCN(Cc4ccn(C)n4)CCC3c3ncc(-c4cc5ccccc5nc4OC)[nH]3)c2c1` (stereo not drawn) [2-(6-methoxy-2-methyl-1H-indol-1-yl)-1-(7-(5-(2-methoxyquinolin-3-yl)-1H-imidazol-2-yl)-4-((1-methyl-1H-pyrazol-3-yl)methyl)-1,4-diazepan-1-yl)ethan-1-one] yielded an EC50 of under 0.1 µM. For `COc1ccc2cc(C)n(CC(=O)N3CCN(CC4CCOC4)C[C@H]3c3ncc(-c4cc5ccccc5nc4OC)[nH]3)c2c1` (stereo partly drawn) [2-(6-methoxy-2-methyl-1H-indol-1-yl)-1-((2S)-2-(5-(2-methoxyquinolin-3-yl)-1H-imidazol-2-yl)-4-((tetrahydrofuran-3-yl)methyl)piperazin-1-yl)ethan-1-one], the EC50 was under 0.1 µM. For `COc1nc2ccccc2cc1-c1cnc(C2CN(S(=O)(=O)N(C)C)CCN2C(=O)Cc2c(C)[nH]c3ccc(F)cc23)[nH]1` (stereo not drawn) [4-(2-(5-fluoro-2-methyl-1H-indol-3-yl)acetyl)-3-(5-(2-methoxyquinolin-3-yl)-1H-imidazol-2-yl)-N,N-dimethylpiperazine-1-sulfonamide], the EC50 was 1.01 to 5 µM. With `COc1ccc2[nH]c(C)c(CC(=O)N3CC(=O)N(C)CC3c3ncc(-c4ccc5ccccc5c4)[nH]3)c2c1` (stereo not drawn) [4-(2-(5-methoxy-2-methyl-1H-indol-3-yl)acetyl)-1-methyl-5-(5-(naphthalen-2-yl)-1H-imidazol-2-yl)piperazin-2-one] the EC50 was 0.51 to 1 µM. Work on `CCC(=O)CCCN1CCN(S(=O)(=O)c2ccccc2)C(c2ncc(-c3ccc4ccccc4c3)[nH]2)C1` (stereo not drawn) [6-(3-(5-(naphthalen-2-yl)-1H-imidazol-2-yl)-4-(phenylsulfonyl)piperazin-1-yl)hexan-3-one] yielded an EC50 of 1.01 to 5 µM. With `CCC(=O)CCCN1CCN(C(=O)Cc2c(C)[nH]c3ccc(OC)cc23)C(c2ncc(-c3ccc4ccccc4c3)o2)C1` (stereo not drawn) [6-(4-(2-(5-methoxy-2-methyl-1H-indol-3-yl)acetyl)-3-(5-(naphthalen-2-yl)oxazol-2-yl)piperazin-1-yl)hexan-3-one] the EC50 was 1.01 to 5 µM. `CCC(=O)CCCN1CCN(C(=O)c2ccccc2)C(c2ncc(-c3ccc4ccccc4c3)[nH]2)C1` (stereo not drawn) [6-(4-benzoyl-3-(5-(naphthalen-2-yl)-1H-imidazol-2-yl)piperazin-1-yl)hexan-3-one] gave an EC50 of 1.01 to 5 µM. With `CCC(=O)CCCN1CCN(Cc2ccccc2)C(c2ncc(-c3ccc4ccccc4c3)[nH]2)C1` (stereo not drawn) [6-(4-benzyl-3-(5-(naphthalen-2-yl)-1H-imidazol-2-yl)piperazin-1-yl)hexan-3-one] the EC50 was 1.01 to 5 µM. Compound `COc1ccc2nc(C(F)(F)F)n(CC(=O)N3CCS(=O)(=O)C[C@H]3c3ncc(-c4cc5ccccc5nc4OC)[nH]3)c2c1` [(R)-2-(6-methoxy-2-(trifluoromethyl)-1H-benzo[d]imidazol-1-yl)-1-(3-(5-(2-methoxyquinolin-3-yl)-1H-imidazol-2-yl)-1,1-dioxidothiomorpholino)ethan-1-one] has an EC50 of 0.1 to 0.5 µM. `COc1ccc2nc(C(F)(F)F)n(CC(=O)N3CCN(Cc4ccn(C)n4)CC[C@@H]3c3ncc(-c4cc5ccccc5nc4OC)[nH]3)c2c1` [(R)-2-(6-methoxy-2-(trifluoromethyl)-1H-benzo[d]imidazol-1-yl)-1-(7-(5-(2-methoxyquinolin-3-yl)-1H-imidazol-2-yl)-4-((1-methyl-1H-pyrazol-3-yl)methyl)-1,4-diazepan-1-yl)ethan-1-one] showed an EC50 of 1.01 to 5 µM. With `COc1ccc2nc(C)n(CC(=O)N3CCN(Cc4ccn(C)n4)CC[C@@H]3c3ncc(-c4cc5ccccc5nc4OC)[nH]3)c2c1` [(R)-2-(6-methoxy-2-methyl-1H-benzo[d]imidazol-1-yl)-1-(7-(5-(2-methoxyquinolin-3-yl)-1H-imidazol-2-yl)-4-((1-methyl-1H-pyrazol-3-yl)methyl)-1,4-diazepan-1-yl)ethan-1-one] the EC50 was under 0.1 µM. `COc1nc2ccccc2cc1-c1cnc([C@@H]2CN(CC(F)(F)F)CCN2C(=O)Cn2c(C(F)(F)F)nc3ccccc32)[nH]1` [(S)-1-(2-(5-(2-methoxyquinolin-3-yl)-1H-imidazol-2-yl)-4-(2,2,2-trifluoroethyl)piperazin-1-yl)-2-(2-(trifluoromethyl)-1H-benzo[d]imidazol-1-yl)ethan-1-one] was tested, and the EC50 was under 0.1 µM.
